Experiment: xn = mol fraction of the nth substance listed
Conditions: Liquid; for viscosity: Concentric cylinders viscometry; for mass density: Vibrating tube method

Cc1ccc(C)c(C)c1 [1,2,4-trimethylbenzene] + CCCCO
Conditions	mass density [kg/m3]	viscosity [mPa·s]
323.15 K, 100 kPa, x2 = 0.7975	–	1.027
323.15 K, 100 kPa, x2 = 0.9131	–	1.22
333.15 K, 100 kPa, x2 = 0	843.6	0.562
333.15 K, 100 kPa, x2 = 0.1002	–	0.552
333.15 K, 100 kPa, x2 = 0.1005	836.9	–
333.15 K, 100 kPa, x2 = 0.2261	830.2	–
333.15 K, 100 kPa, x2 = 0.2327	–	0.564
333.15 K, 100 kPa, x2 = 0.2999	826.1	–
333.15 K, 100 kPa, x2 = 0.3	–	0.582
333.15 K, 100 kPa, x2 = 0.3966	820.6	–
333.15 K, 100 kPa, x2 = 0.3969	–	0.6
333.15 K, 100 kPa, x2 = 0.5289	812.8	–
333.15 K, 100 kPa, x2 = 0.53	–	0.652
333.15 K, 100 kPa, x2 = 0.6367	805.8	–
333.15 K, 100 kPa, x2 = 0.637	–	0.711
333.15 K, 100 kPa, x2 = 0.7249	799.8	–
333.15 K, 100 kPa, x2 = 0.7975	–	0.853
333.15 K, 100 kPa, x2 = 0.7977	794.5	–
333.15 K, 100 kPa, x2 = 0.9131	785.6	0.996
333.15 K, 1000 kPa, x2 = 0	844.4	–
333.15 K, 1000 kPa, x2 = 0.1005	837.7	–
333.15 K, 1000 kPa, x2 = 0.2261	831	–
333.15 K, 1000 kPa, x2 = 0.2999	826.9	–
333.15 K, 1000 kPa, x2 = 0.3966	821.4	–
333.15 K, 1000 kPa, x2 = 0.5289	813.6	–
333.15 K, 1000 kPa, x2 = 0.6367	806.6	–
333.15 K, 1000 kPa, x2 = 0.7249	800.7	–
333.15 K, 1000 kPa, x2 = 0.7977	795.3	–
333.15 K, 1000 kPa, x2 = 0.9131	786.4	–
333.15 K, 5000 kPa, x2 = 0	847.6	–
333.15 K, 5000 kPa, x2 = 0.1005	841	–
333.15 K, 5000 kPa, x2 = 0.2261	834.4	–
333.15 K, 5000 kPa, x2 = 0.2999	830.3	–
333.15 K, 5000 kPa, x2 = 0.3966	824.8	–
333.15 K, 5000 kPa, x2 = 0.5289	817.1	–
333.15 K, 5000 kPa, x2 = 0.6367	810.1	–
333.15 K, 5000 kPa, x2 = 0.7249	804.2	–
333.15 K, 5000 kPa, x2 = 0.7977	798.8	–
333.15 K, 5000 kPa, x2 = 0.9131	789.9	–
333.15 K, 10000 kPa, x2 = 0	851.4	–
333.15 K, 10000 kPa, x2 = 0.1005	844.9	–
333.15 K, 10000 kPa, x2 = 0.2261	838.3	–
333.15 K, 10000 kPa, x2 = 0.2999	834.2	–
333.15 K, 10000 kPa, x2 = 0.3966	828.8	–
333.15 K, 10000 kPa, x2 = 0.5289	821.1	–
333.15 K, 10000 kPa, x2 = 0.6367	814.2	–
333.15 K, 10000 kPa, x2 = 0.7249	808.3	–
333.15 K, 10000 kPa, x2 = 0.7977	803	–
333.15 K, 10000 kPa, x2 = 0.9131	794.1	–
333.15 K, 20000 kPa, x2 = 0	858.6	–
333.15 K, 20000 kPa, x2 = 0.1005	852.4	–
333.15 K, 20000 kPa, x2 = 0.2261	845.8	–
333.15 K, 20000 kPa, x2 = 0.2999	841.8	–
333.15 K, 20000 kPa, x2 = 0.3966	836.4	–
333.15 K, 20000 kPa, x2 = 0.5289	828.7	–
333.15 K, 20000 kPa, x2 = 0.6367	821.9	–
333.15 K, 20000 kPa, x2 = 0.7249	816	–
333.15 K, 20000 kPa, x2 = 0.7977	810.7	–
333.15 K, 20000 kPa, x2 = 0.9131	801.9	–
333.15 K, 30000 kPa, x2 = 0	865.3	–
333.15 K, 30000 kPa, x2 = 0.1005	859.2	–
333.15 K, 30000 kPa, x2 = 0.2261	852.8	–
333.15 K, 30000 kPa, x2 = 0.2999	848.7	–
333.15 K, 30000 kPa, x2 = 0.3966	843.4	–
333.15 K, 30000 kPa, x2 = 0.5289	835.7	–
333.15 K, 30000 kPa, x2 = 0.6367	828.9	–
333.15 K, 30000 kPa, x2 = 0.7249	823.1	–
333.15 K, 30000 kPa, x2 = 0.7977	817.8	–
333.15 K, 30000 kPa, x2 = 0.9131	809.1	–
333.15 K, 40000 kPa, x2 = 0	871.6	–
333.15 K, 40000 kPa, x2 = 0.1005	865.5	–
333.15 K, 40000 kPa, x2 = 0.2261	859.2	–
333.15 K, 40000 kPa, x2 = 0.2999	855.2	–
333.15 K, 40000 kPa, x2 = 0.3966	849.8	–
333.15 K, 40000 kPa, x2 = 0.5289	842.2	–
333.15 K, 40000 kPa, x2 = 0.6367	835.5	–
333.15 K, 40000 kPa, x2 = 0.7249	829.6	–
333.15 K, 40000 kPa, x2 = 0.7977	824.4	–
333.15 K, 40000 kPa, x2 = 0.9131	815.6	–
333.15 K, 50000 kPa, x2 = 0	877.4	–
333.15 K, 50000 kPa, x2 = 0.1005	871.4	–
333.15 K, 50000 kPa, x2 = 0.2261	865.1	–
333.15 K, 50000 kPa, x2 = 0.2999	861.1	–
333.15 K, 50000 kPa, x2 = 0.3966	855.9	–
333.15 K, 50000 kPa, x2 = 0.5289	848.3	–
333.15 K, 50000 kPa, x2 = 0.6367	841.6	–
333.15 K, 50000 kPa, x2 = 0.7249	835.7	–
333.15 K, 50000 kPa, x2 = 0.7977	830.5	–
333.15 K, 50000 kPa, x2 = 0.9131	821.7	–
333.15 K, 60000 kPa, x2 = 0	883	–
333.15 K, 60000 kPa, x2 = 0.1005	877.1	–
333.15 K, 60000 kPa, x2 = 0.2261	870.8	–
333.15 K, 60000 kPa, x2 = 0.2999	866.8	–
333.15 K, 60000 kPa, x2 = 0.3966	861.6	–
333.15 K, 60000 kPa, x2 = 0.5289	854	–
333.15 K, 60000 kPa, x2 = 0.6367	847.3	–
333.15 K, 60000 kPa, x2 = 0.7249	841.4	–
333.15 K, 60000 kPa, x2 = 0.7977	836.3	–
333.15 K, 60000 kPa, x2 = 0.9131	827.5	–
333.15 K, 70000 kPa, x2 = 0	888.2	–
333.15 K, 70000 kPa, x2 = 0.1005	882.3	–
333.15 K, 70000 kPa, x2 = 0.2261	876.2	–
333.15 K, 70000 kPa, x2 = 0.2999	872.2	–
333.15 K, 70000 kPa, x2 = 0.3966	866.9	–
333.15 K, 70000 kPa, x2 = 0.5289	859.5	–
333.15 K, 70000 kPa, x2 = 0.6367	852.7	–
333.15 K, 70000 kPa, x2 = 0.7249	846.9	–
333.15 K, 70000 kPa, x2 = 0.7977	841.7	–
333.15 K, 70000 kPa, x2 = 0.9131	832.9	–
333.15 K, 80000 kPa, x2 = 0	893.2	–
333.15 K, 80000 kPa, x2 = 0.1005	887.4	–
333.15 K, 80000 kPa, x2 = 0.2261	881.2	–
333.15 K, 80000 kPa, x2 = 0.2999	877.2	–
333.15 K, 80000 kPa, x2 = 0.3966	872	–
333.15 K, 80000 kPa, x2 = 0.5289	864.6	–
333.15 K, 80000 kPa, x2 = 0.6367	857.8	–
333.15 K, 80000 kPa, x2 = 0.7249	852	–
333.15 K, 80000 kPa, x2 = 0.7977	846.8	–
333.15 K, 80000 kPa, x2 = 0.9131	838	–
333.15 K, 90000 kPa, x2 = 0	898	–
333.15 K, 90000 kPa, x2 = 0.1005	892.2	–
333.15 K, 90000 kPa, x2 = 0.2261	886	–
333.15 K, 90000 kPa, x2 = 0.2999	882.1	–
333.15 K, 90000 kPa, x2 = 0.3966	876.9	–
333.15 K, 90000 kPa, x2 = 0.5289	869.4	–
333.15 K, 90000 kPa, x2 = 0.6367	862.7	–
333.15 K, 90000 kPa, x2 = 0.7249	856.9	–
333.15 K, 90000 kPa, x2 = 0.7977	851.7	–
333.15 K, 90000 kPa, x2 = 0.9131	842.9	–
333.15 K, 100000 kPa, x2 = 0	902.5	–
333.15 K, 100000 kPa, x2 = 0.1005	896.8	–
333.15 K, 100000 kPa, x2 = 0.2261	890.7	–
333.15 K, 100000 kPa, x2 = 0.2999	886.7	–
333.15 K, 100000 kPa, x2 = 0.3966	881.5	–
333.15 K, 100000 kPa, x2 = 0.5289	874.1	–
333.15 K, 100000 kPa, x2 = 0.6367	867.4	–
333.15 K, 100000 kPa, x2 = 0.7249	861.6	–
333.15 K, 100000 kPa, x2 = 0.7977	856.4	–
333.15 K, 100000 kPa, x2 = 0.9131	847.6	–
333.15 K, 120000 kPa, x2 = 0	911.1	–
333.15 K, 120000 kPa, x2 = 0.1005	905.4	–
333.15 K, 120000 kPa, x2 = 0.2261	899.4	–
333.15 K, 120000 kPa, x2 = 0.2999	895.4	–
333.15 K, 120000 kPa, x2 = 0.3966	890.3	–
333.15 K, 120000 kPa, x2 = 0.5289	882.8	–
333.15 K, 120000 kPa, x2 = 0.6367	876.1	–
333.15 K, 120000 kPa, x2 = 0.7249	870.3	–
333.15 K, 120000 kPa, x2 = 0.7977	865.2	–
333.15 K, 120000 kPa, x2 = 0.9131	856.4	–
333.15 K, 140000 kPa, x2 = 0	919	–
333.15 K, 140000 kPa, x2 = 0.1005	913.3	–
333.15 K, 140000 kPa, x2 = 0.2261	907.6	–
333.15 K, 140000 kPa, x2 = 0.2999	903.3	–
333.15 K, 140000 kPa, x2 = 0.3966	898.3	–
333.15 K, 140000 kPa, x2 = 0.5289	891	–
333.15 K, 140000 kPa, x2 = 0.6367	884.3	–
333.15 K, 140000 kPa, x2 = 0.7249	878.6	–
333.15 K, 140000 kPa, x2 = 0.7977	873.5	–
333.15 K, 140000 kPa, x2 = 0.9131	864.5	–
